Assay results published in patent publication US20120177779A1, “FISH FEEDING STIMULANT AND PRODUCT” (priority 2008, published 2012).

Tests used:
carp [1] = details: in vivo
Source text: (§1) The data in FIG. 8 leads to several conclusions. […] Importantly, members of both the ‘A’ and ‘SP’ AA groups are NOT considered to be physiologically significant. […] Thus, as a direct consequence, it is strongly inferred that only AAs belonging to the ‘B’ and ‘LN’ groups are physiologically significant with regard to the fishes' ability to detect forage via the recognition of solvated AAs.

carp [2] = assay: Stimulatory response (average feeding time/fish) to VAL/LYS solutions, FIG. 8; assay type: in vivo
Source text: FIG. 8 is a graph showing stimulatory response as a function of composition for mixtures of L-Valine (V) and L-Lysine (K).
The relationship between stimulatory response (as determined through average feeding time/fish) and AA ratio for a variety of net equimolar mixtures comprised of VAL (V) and LYS (K), as well as reference solutions containing the respective individual AAs is shown in FIG. 8.
as §1

[3] = physiological pH; cited from earlier work

## NC(=O)CC[C@H](N)C(=O)O [GLU, glutamine]
Carp [1]
  physiological distress on exposure: signs of physiological distress

## NCCCC[C@H](N)C(=O)O [LYS, L-Lysine]
Carp [2]; net equimolar VAL/LYS mixtures and 0.5% single AA reference solutions
  stimulatory response (average feeding time/fish): significantly enhanced stimulatory response

## N[C@@H](Cc1c[nH]cn1)C(=O)O [L-Histidine]
[3]
  fraction protonated: approximately 10%

## CC(C)[C@H](N)C(=O)O [VAL, L-Valine]
Carp [2]; similar concentration (0.5%) solution
  stimulatory response relative to that observed for a similar strength LYS solution: approximately 50%

## N[C@@H](CO)C(=O)O [SER, serine]
Carp [1]
  physiological distress on exposure: signs of physiological distress
